# Experimental data reported in patent US10041937B2, “Macrophage identification agent, and identification method, sorting method, evaluation method, screening method and kit using the macrophage identifier agent” (CANON KABUSHIKI KAISHA, priority 2013, dated 2018).
# Tested on: M1 macrophages and M2 macrophages differentiated from mouse bone marrow cells
# Assay: Subtype identification by staining and flow cytometry of M1 and M2 macrophages differentiated from mouse bone marrow cells
# Assay type: cell-based, Balb/c mouse
# Settings: for Resolution ratio R: M1 vs M2 macrophages from mouse bone marrow cells; for Evaluation of macrophage subtype identification: class based on resolution R; for Peak position of M1 macrophage: mouse bone marrow-derived M1 macrophages; for Peak position of M1 macrophage / Peak position of M2 macrophage: channel listed per compound; for Peak position of M2 macrophage: mouse bone marrow-derived M2 macrophages; for subtype more strongly stained: two compounds used in combination, each 1 μM
# Method in brief: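 Balb/c mouse bone marrow cells were differentiated to macrophages with 50 ng/mL M-CSF over two 3–4-day periods, then polarized for 3 days to M1 (interferon-γ plus polyliposaccharide) or M2 (IL-4). Live cells (aqua dye-negative) were analysed by flow cytometry; resolution R = |FM1−FM2|/(WM1+WM2) from histogram peak positions and widths indexed subtype discrimination.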
# [1] = general formula (10) dyes (Table 8)
# [2] = general formula (11) dyes (Table 9)
SMILES,Resolution ratio R [1],Evaluation of macrophage subtype identification [1],Peak position of M1 macrophage [1],Peak position of M2 macrophage [1],subtype more strongly stained,Resolution ratio R [2],Evaluation of macrophage subtype identification [2],Peak position of M1 macrophage [2],Peak position of M2 macrophage [2]
CCN(CC)c1ccc2cc(-c3nc4ncccc4o3)c(=O)oc2c1 [compound (116)],0.772,"A (The compound is very good in the subtype identification (namely, the resolution R is 0.5 or more))",4.91,12.1,more strongly stain the M2 macrophages than the M1 macrophages,,,,
CCC1=C(C)C2=C(C)c3c(C)c(CC)c(C)n3[B-](C#C[Si](C)(C)C)(C#C[Si](C)(C)C)[N+]2=C1C [compound (154)],,,,,,0.160,"B (the compound is good in the subtype identification (namely, the resolution R is 0.15 or more and less than 0.5))",1.25,1.63
COC(=O)COc1ccc(/C=C/C2=[N+]3C(=Cc4ccc(-c5cccs5)n4[B-]3(F)F)C=C2)cc1 [compound (161)],,,,,the M1 macrophages show higher fluorescence intensity in the APC channel than the M2 macrophages,0.582,"A (The compound is very good in the subtype identification (namely, the resolution R is 0.5 or more))",38.4,9.02
